# Measured values taken from ChEMBL document CHEMBL3885881, “DrugMatrix”.
# Species on record: Rattus norvegicus
# Type: toxicity, organism-based, Sprague-Dawley
# Details: in vivo, ip, 24 h, route intraperitoneal, time 1 day, vehicle .1 % RSA/SALINE
# [1] = 0 mg/kg, vehicle control, tissue Blood, dose level Control
# [2] = 0 mg/kg, vehicle control, tissue Plasma, dose level Control
# [3] = […], tissue Blood, dose 0.25 mg/Kg, dose level High
# [4] = […], tissue Plasma, dose 0.25 mg/Kg, dose level High
# Description: DrugMatrix - Regimen: Single
substance,measurement,setting,value
"TNF-ALPHA, RAT",ABSOLUTE EOSINOPHIL,[1],109.33 CELLS/uL
same,ABSOLUTE LYMPHOCYTE,[1],13180.67 CELLS/uL
same,ABSOLUTE MONOCYTE,[1],354 CELLS/uL
same,ABSOLUTE SEGMENTED NEUTROPHIL,[1],1756 CELLS/uL
same,BASOPHIL,[1],0%
same,EOSINOPHIL,[1],0.67%
same,ERYTHROCYTE COUNT,[1],5.38 x10E6/uL
same,HEMOGLOBIN,[1],12.57 G/DL
same,LEUKOCYTE COUNT,[1],15.4 x10E3/uL
same,LYMPHOCYTE,[1],85%
same,MEAN CORPUSCULAR HEMOGLOBIN,[1],23.37 pg
same,MEAN CORPUSCULAR HEMOGLOBIN CONCENTRATION,[1],38.3 G/DL
same,NEUTROPHIL,[1],12%
same,NUCLEATED RED BLOOD CELLS,[1],0 /100WBC
same,PLATELET COUNT,[1],832.33 x10E3/uL
same,ALANINE AMINOTRANSFERASE,[2],37.33 u/L
same,ALBUMIN,[2],4 G/DL
same,ALKALINE PHOSPHATASE,[2],344.67 u/L
same,ASPARTATE AMINOTRANSFERASE,[2],69.33 u/L
same,BLOOD UREA NITROGEN,[2],13.67 mg/dL
same,CARBON DIOXIDE,[2],28.33 mmol/L
same,CHLORIDE,[2],99.67 MEQ/L
same,CHOLESTEROL,[2],73.67 mg/dL
same,CREATINE PHOSPHOKINASE,[2],270 u/L
same,CREATININE,[2],0.19 mg/dL
same,GLUCOSE,[2],176.33 mg/dL
same,LACTATE DEHYDROGENASE,[2],160 u/L
same,PHOSPHORUS,[2],13.47 mg/dL
same,POTASSIUM,[2],6.77 MEQ/L
same,TOTAL BILIRUBIN,[2],0.13 mg/dL
same,TOTAL PROTEIN,[2],6.07 G/DL
same,URIC ACID,[2],1.87 mg/dL
same,ABSOLUTE EOSINOPHIL,[3],57.67 CELLS/uL
same,ABSOLUTE LYMPHOCYTE,[3],13018 CELLS/uL
same,ABSOLUTE MONOCYTE,[3],366 CELLS/uL
same,ABSOLUTE SEGMENTED NEUTROPHIL,[3],1925 CELLS/uL
same,BASOPHIL,[3],0%
same,EOSINOPHIL,[3],0.33%
same,ERYTHROCYTE COUNT,[3],5.31 x10E6/uL
same,HEMATOCRIT,[3],32.37%
same,HEMOGLOBIN,[3],12.23 G/DL
same,LEUKOCYTE COUNT,[3],15.37 x10E3/uL
same,LYMPHOCYTE,[3],85%
same,MEAN CORPUSCULAR HEMOGLOBIN,[3],23.03 pg
same,MEAN CORPUSCULAR HEMOGLOBIN CONCENTRATION,[3],37.8 G/DL
same,MEAN CORPUSCULAR VOLUME,[3],60.97 fL
same,NEUTROPHIL,[3],12.33%
same,NUCLEATED RED BLOOD CELLS,[3],0.33 /100WBC
same,PLATELET COUNT,[3],1023.67 x10E3/uL
same,ALANINE AMINOTRANSFERASE,[4],40 u/L
same,ALKALINE PHOSPHATASE,[4],339.67 u/L
same,ASPARTATE AMINOTRANSFERASE,[4],85.67 u/L
same,BLOOD UREA NITROGEN,[4],13.67 mg/dL
same,CHOLESTEROL,[4],76.33 mg/dL
same,CREATINE PHOSPHOKINASE,[4],860.67 u/L
same,CREATININE,[4],0.21 mg/dL
same,GLUCOSE,[4],158.33 mg/dL
same,LACTATE DEHYDROGENASE,[4],124 u/L
same,PHOSPHORUS,[4],11.93 mg/dL
same,POTASSIUM,[4],6.39 MEQ/L
same,SODIUM,[4],145.63 MEQ/L
same,TOTAL BILIRUBIN,[4],0.2 mg/dL
same,TOTAL PROTEIN,[4],6 G/DL
